# Experimental data reported in PMC7940618, “Specific inhibition of the Survivin–CRM1 interaction by peptide-modified molecular tweezers” (Nature Communications, 2021).
# pKd: −log10 of the molar value. Values joined by “and” are separate entries in the source; they are usually repeats but may differ in a detail not shown here. Equal values may be shown once. Peptide text beside a SMILES is read from it.
# Assays:
# Format in all cases: binding
# Survivin120 = target: T1, Survivin120 (Homo sapiens, UniProt O15392); assay: ITC titration of tweezers with Survivin120 wildtype; conditions: ITC, Survivin120 WT; for pKd: PBS pH 7.4, 25 °C, one set of sites model, mean ± SEM of fit
# T1 construct: the only published NMR structure originated from a truncated Survivin (aa 1-120) with improved solubility; GST with PreScission site (N); made in house; host or cells: Escherichia coli soluBL21
# Method: The interaction between the tweezers and Survivin was studied by isothermal titration calorimetry (ITC) and NMR spectroscopy. So far, the only published NMR structure originated from a truncated Survivin (aa 1-120) with improved solubility. […] Since the truncated construct still contains all relevant parts of the protein and gives excellent NMR spectra (SI5), we chose it for all our in vitro experiments and denote it as Survivin120 in the following results.
# ITC was performed with a MicroCal iTC200 from Malvern Panalytical in PBS, pH 7.4 at 25 °C with molecular tweezers in the cell and Survivin120 in the titration syringe. The protein was dialyzed overnight at 4 °C against the PBS buffer. Ligands were dissolved in the respective dialysis buffer. Then, 300 µM TW were titrated with 300 µM Survivin120 WT or 321 µM Survivin120 K90/103T. Then, 100 µM TW-ELTL, TW-ELTLGEFL, or TW-LFEEGLLT was titrated with 1.2 mM Survivin120 WT or 2.5 mM Survivin120 K90/103T. For reverse titrations, either 33.3 or 34.4 µM Survivin120 in the cell was titrated with 5 mM TW or TW-ELTL in the syringe, respectively. All titrations were performed in PBS, pH 7.4 at 25 °C. Then, 1.5 μL injections were used with 120 s spacing time between injections. The injection rate was set to 0.5 µL/s and the reference power was 5 µcal/s. ITC thermograms were fitted to a one set of sites model with the software Origin (v7.0552) provided with the instrument. Heat of dilution was subtracted as constant from each data point.
# ITC thermograms were fitted to a one set of sites model with the software Origin provided with the instrument. Heat of dilution was subtracted as constant from each data point. From three independent experiments (n = 3), one representative example was depicted, and thermodynamic data were derived thereof. For pull-down experiments, only the representative quantification of the depicted western blot is shown. […] Fluorescence anisotropy graphs were generated with GraphPad Prism 5.0. Depicted error bars represent the standard deviation of three independent titrations.
# [1] = target: T2, GST-Survivin120–CRM1 interaction (Homo sapiens, UniProt O15392); assay: Pull-down with GST-Survivin120 wildtype bait, CRM1 and RanQ69L; conditions: for CRM1: Peak area determined with ImageJ / CRM1 intensity_normalised on GST-Surv intensity (samples 1-14) / CRM1: Control w/o GST-Survivin subtracted (sample 16 or 23): CRM1 band; for CRM1: Peak area determined with ImageJ / CRM1 intensity_normalised on GST-Surv intensity (samples 1-14) / CRM1: Control w/o GST-Survivin subtracted (sample 16 or 23) / CRM1 intensity_normalised on GST-Surv intensity (samples 1-14) and CRM1 intensity w/o incubation (sample 15 or 22): samples 15-21 (WT); for CRM1: Control w/o GST-Survivin subtracted (sample 16 or 23): sample 16 subtracted; for GST-Surv: Peak area determined with ImageJ / GST-Surv: Control w/o GST-Survivin subtracted (sample 2 or 9): GST-Surv bait band; for GST-Surv: Peak area determined with ImageJ: samples 1-7 (WT according to the summary in r39-r41); for GST-Surv: Control w/o GST-Survivin subtracted (sample 2 or 9): samples 1-7 (WT), sample 2 subtracted; for Normalised CRM1 intensity, summary of replicates I and II: WT, w/o tweezer = 100, replicates I and II
# T2 construct: the only published NMR structure originated from a truncated Survivin (aa 1-120) with improved solubility; made in house; host or cells: Escherichia coli soluBL21
# Method: (§1) Next, we investigated whether tweezer inhibition of the export complex assembly is compromised upon lysine mutations near the NES. Therefore, pull-down experiments were performed with recombinant GST-tagged Survivin120 wildtype and K90/103T as bait proteins, tweezers, recombinant CRM1 and RanQ69L (Fig. 7g). Controls lacking the Survivin baits were included, as well as isolated peptides without tweezer (Fig. 7h). […] However, for the double lysine mutant GST-Survivin120-K90/103T even the tweezer conjugates lost most of their inhibitory power toward the essential Survivin–CRM1 interaction.
# (§2) All pull-down assays were performed at room temperature in pull-down buffer (PBS, pH 7.4, 1 mM DTT, 0.02 Triton X-100). GST fusion proteins were immobilized on 50 μL GSH-coated Sepharose 4B beads from GE Healthcare. The beads were prior equilibrated and blocked with 500 μL pull-down blocking buffer (PBS, pH 7.4, 1 (w/v) BSA, 1 mM DTT, 0.02 (v/v) Triton X-100) for 1 h to prevent unspecific binding.
# (§3) For analysis of the effective inhibitory tweezer concentration, 200 μg 293T lysate with overexpressed Survivin142-HA was preincubated without ligand or with different concentrations (10 nM to 200 μM) of unmodified tweezer TW, TW-ELTL, TW-ELTLGEFL, or TW-LFEEGLLT for 1 h and then mixed with 35 μg GST-CRM1, 55 μg RanQ69L, and 2 mM dGTP. GSH-beads were incubated with this protein mixture for 2 h under rotation. For analysis of tweezer specificity, 40 μg GST-Survivin120 or GST-Survivin120-K90/103T point mutant was pre-bound to equilibrated GSH-beads in 500 μL pull-down buffer, containing additionally either no ligand or 50 μM unmodified tweezer TW, TW-ELTL, TW-ELTLGEFL, or peptides ELTL and ELTLGEFL, for 1 h under rotation. After washing and blocking, GSH-beads were incubated with a protein mixture consisting of 2 mM dGTP, 50 μg CRM1, and 50 μg RanQ69L for 2 h under rotation.
# (§4) Samples of input and beads taken during pull-down experiments were ran on 12.5 SDS gels and transferred onto 0.2 µM PVDF membranes (Amersham Hybond P 0.2) using a PerfectBlue™ tank electro blotter (Peqlab) at 350 mA for 150 min. Membranes were blocked for 1 h using 5% milk powder in TBS buffer containing 0.1% Tween-20. Next, membranes were incubated in primary antibodies against HA (anti-HA, mouse monoclonal, BioLegend, Covance MMS-101R, 1:1,000), GST (anti-GST, mouse monoclonal, Santa Cruz Biotechnology Inc., sc-57753, 1:1000) or CRM1 (anti-CRM1, rabbit polyclonal, Novus Biologicals Ltd., NB100-79802, 1:10,000) overnight at 4 °C. Secondary horseradish peroxidase (HRP)-conjugated antibody (anti-mouse IgG-HRP, sheep, GE Healthcare, NXA931 or anti-rabbit IgG-HRP, donkey, GE Healthcare, NA934) was then added (1:10,000) for 1 h at room temperature. Chemiluminescence was detected and imaged using the Pierce ECL Plus Western Blotting Substrate kit (Thermo Fisher Scientific) and Chemidoc system (Bio-Rad) or film processor Cawomat 2000 IR (CAWO). Western blots were analyzed by densitometric analysis with ImageJ version 1.52p (U.S. National Institutes of Health), measuring the mean gray intensity of protein bands. Uncropped and unprocessed scans of western blots are deposited in the Source Data file.
# [2] = target: T3, GST-Survivin120-K90/103T–CRM1 interaction (Homo sapiens, UniProt O15392, K103T/K90T); assay: Pull-down with GST-Survivin120-K90/103T bait, CRM1 and RanQ69L; conditions: for CRM1: Peak area determined with ImageJ / CRM1 intensity_normalised on GST-Surv intensity (samples 1-14) / CRM1: Control w/o GST-Survivin subtracted (sample 16 or 23): CRM1 band; for CRM1: Peak area determined with ImageJ / CRM1 intensity_normalised on GST-Surv intensity (samples 1-14) / CRM1: Control w/o GST-Survivin subtracted (sample 16 or 23) / CRM1 intensity_normalised on GST-Surv intensity (samples 1-14) and CRM1 intensity w/o incubation (sample 15 or 22): samples 22-28 (K90/103T); for CRM1: Control w/o GST-Survivin subtracted (sample 16 or 23): sample 23 subtracted; for GST-Surv: Peak area determined with ImageJ / GST-Surv: Control w/o GST-Survivin subtracted (sample 2 or 9): GST-Surv bait band; for GST-Surv: Peak area determined with ImageJ: samples 8-14 (K90/103T according to the summary in r39-r41); for GST-Surv: Control w/o GST-Survivin subtracted (sample 2 or 9): samples 8-14 (K90/103T), sample 9 subtracted; for Normalised CRM1 intensity, summary of replicates I and II: K90/103T, w/o tweezer = 100, replicates I and II
# T3 construct: the only published NMR structure originated from a truncated Survivin (aa 1-120) with improved solubility; made in house; host or cells: Escherichia coli soluBL21
# Method: as §1, §2, §3, §4
# [3] = fraction of sample 15 (w/o Tweezer)
# [4] = fraction of sample 22 (w/o tweezer)
# T3 sequence (O15392 1-120 K90T/K103T): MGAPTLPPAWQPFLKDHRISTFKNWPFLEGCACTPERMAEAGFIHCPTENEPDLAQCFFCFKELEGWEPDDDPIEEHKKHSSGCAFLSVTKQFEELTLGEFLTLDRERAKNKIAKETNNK
# T2 sequence (O15392 1-120): as the sequence (O15392 1-120 K90T/K103T) above, with T90K, T103K counted along it
# T1 sequence (O15392 1-120): as the sequence (O15392 1-120 K90T/K103T) above, with T90K, T103K counted along it
SMILES,-TΔS (Survivin120) [kcal],ΔG (Survivin120) [kcal],ΔH (Survivin120) [kcal],pKd (Survivin120),CRM1: Peak area determined with ImageJ [1],CRM1 intensity_normalised on GST-Surv intensity (samples 1-14) [1],CRM1: Control w/o GST-Survivin subtracted (sample 16 or 23) [1],GST-Surv: Peak area determined with ImageJ [1],GST-Surv: Control w/o GST-Survivin subtracted (sample 2 or 9) [1],"Normalised CRM1 intensity, summary of replicates I and II [1]","CRM1 intensity_normalised on GST-Surv intensity (samples 1-14) and CRM1 intensity w/o incubation (sample 15 or 22) [1, 3]",CRM1 intensity_normalised on GST-Surv intensity (samples 1-14) and CRM1 intensity w/o incubation (sample 15 or 22) ([1]; w/o Tweezer = 100) [%],CRM1: Peak area determined with ImageJ [2],CRM1 intensity_normalised on GST-Surv intensity (samples 1-14) [2],CRM1: Control w/o GST-Survivin subtracted (sample 16 or 23) [2],GST-Surv: Peak area determined with ImageJ [2],GST-Surv: Control w/o GST-Survivin subtracted (sample 2 or 9) [2],"Normalised CRM1 intensity, summary of replicates I and II [2]","CRM1 intensity_normalised on GST-Surv intensity (samples 1-14) and CRM1 intensity w/o incubation (sample 15 or 22) [2, 4]",CRM1 intensity_normalised on GST-Surv intensity (samples 1-14) and CRM1 intensity w/o incubation (sample 15 or 22) ([2]; w/o tweezer = 100) [%],other results
"O=P(O)(O)Oc1c2c(c(OP(=O)(O)O)c3c1C1CC3c3cc4c(cc31)C1CC4c3ccccc31)C1CC2c2cc3c(cc21)C1CC3c2ccccc21 [TW, reference compound]",-4.7,-6.0,-1.3,4.42,21154.6,0.3073,16296.9,53864.7,53029.3,86.9559% and 97.9595%,0.8696,86.9559,39038.4,0.5728,34329.1,62533.1,59934,90.4067%,0.9041,90.4067,"inhibition of the interaction between CRM1 and GST-Survivin120 ([1]; pull-down, 50 µM ligand, wildtype): inactive"
CC(C)C[C@H](NC(=O)[C@H](Cc1ccccc1)NC(=O)[C@H](CCC(=O)O)NC(=O)CNC(=O)[C@H](CC(C)C)NC(=O)[C@@H](NC(=O)[C@H](CC(C)C)NC(=O)[C@H](CCC(=O)O)NC(=O)Cn1cc(CCOP(=O)(O)Oc2c3c(c(OP(=O)(O)O)c4c2C2CC4c4cc5c(cc42)C2CC5c4ccccc42)C2CC3c3cc4c(cc32)C2CC4c3ccccc32)nn1)[C@@H](C)O)C(=O)O [TW-ELTLGEFL] (HELM PEPTIDE1{[O=C(Cn1cc(CCOP(=O)(O)Oc2c3c(c(OP(=O)(O)O)c4c2C2CC4c4cc5c(cc42)C2CC5c4ccccc42)C2CC3c3cc4c(cc32)C2CC4c3ccccc32)nn1)[*:2]].E.L.T.L.G.E.F.L}$$$$V2.0),–,–,–,4.72,–,–,–,–,–,18.4722% and 35.2764%,–,18.4722,–,–,–,–,–,109.825% and 111.087%,–,109.825,–
CC(C)C[C@H](NC(=O)[C@@H](NC(=O)[C@H](CC(C)C)NC(=O)[C@H](CCC(=O)O)NC(=O)Cn1cc(CCOP(=O)(O)Oc2c3c(c(OP(=O)(O)O)c4c2[C@H]2C[C@@H]4c4cc5c(cc42)[C@H]2C[C@@H]5c4ccccc42)[C@H]2C[C@@H]3c3cc4c(cc32)[C@H]2C[C@@H]4c3ccccc32)nn1)[C@@H](C)O)C(=O)O [TW-ELTL],-3.8,-6.3,-2.5,4.62,4951.05,0.007388,93.343,13469.9,12634.6,2.09% and 27.3879%,0.0209,2.09,11197.5,0.3807,6488.31,19643.8,17044.7,60.0833%,0.6008,60.0833,–
